Here are results for 47 compounds from US4266034A, “Method for producing microbial cells and use thereof to produce oxidation products” (priority 1979, dated 1981).

For experiment [1], the system named is secondary alcohol dehydrogenase. Kind of experiment: Purified yeast-derived secondary alcohol dehydrogenase activity. The class given is biochemical, Pichia sp. NRRL Y-11,328. The method, then: Large scale cultures of Pichia sp. NRRL Y-11,328 were grown with aeration at 30° C. in a 14-liter New Brunswick f fermentor in a mineral salt medium containing methanol (0.4%, v/v) as the sole carbon source. The cells (200 g., wet weight) were suspended in […] sodium phosphate buffer, pH 7.0, containing 1 mM dithiothreitol (buffer A), and crude extracts were prepared as described previously. To the crude extracts, 18 ml. of protamine sulfate solution [2% solution in 0.1 M tris (hydroxymethyl) aminomethane (tris) base] was added dropwise with continuous stirring. After standing for 30 min., the extracts were centrifuged at 20,000×g. for 60 min. The supernatant solution was fractionated with solid ammonium sulfate. Extracts were brought to 50% of saturation with respect to ammonium sulfate by addition of 313 g. of the salt per liter of extract. Precipitated proteins was removed by centrifugation, and 137 g. of ammonium sulfate was added per liter of the supernatant liquid to bring it to 70% of saturation. Material precipitating between 50 and 70% of saturation was collected by centrifugation and dissolved in buffer A. This preparation was dialyzed overnight against buffer A, and the dialyzed material was applied to a DEAE-cellulose column (5×40 cm) that had been equilibrated with buffer A. The sample was washed with 200 ml. of buffer A and eluted with 2 liters of buffer A that contained NaCl in a linear gradient running from a concentration of 0 to 0.5 M. Fractions of 15 ml. were collected. Fractions containing secondary alcohol dehydrogenase activity were pooled and were termed DEAE-cellulose eluate. The DEAE-cellulose eluate was concentrated by ammonium sulfate fractionation.
Secondary alcohol dehydrogenase activity was measured spectrophotometrically at 340 nm with a NAD^+ as an electron acceptor. The reaction mixture, in a total 3.0 ml., contained 50 mM phosphate buffer, pH 8.0, 5 μmoles NAD^+, crude extracts, and substrate. […] Protein concentration was determined by the method of Lowry et al.
The substrate specificity of the purified secondary alcohol dehydrogenase was examined spectrophotometrically.

Experiment [2] has the same test system. Kind of experiment: Cofactor requirement of cell-free soluble extracts oxidizing 2-butanol. Particulars: cell-free systems. The class given is biochemical. Here is the method:
Catalytic activity was also assayed by fluorescence spectrophotometry.

Experiment [3] concerns P(40) particulate fraction of Methylosinus sp. (CRL-15, NRRL B-11,202). Kind of experiment: Epoxidation of propylene and hydroxylation of methane by P(40) particulate fraction. The class given is biochemical. Particulars: for Propylene Oxide Produced: substrate competition, P(40) fraction; for Rate of Production Formation: substrate oxidized by P(40) fraction, 30° C.; for Methane-Oxidizing Activity / Propylene-Oxidizing Activity: metal 10^-3 M; for Methane-Oxidizing Activity: control 4.0; for Propylene-Oxidizing Activity: control […].

In experiment [4] the test system is cell-free particulate fractions derived from the methylotrophic microorganisms. Kind of experiment: Inhibition of conversion of C3-C6 n-alkanes to sec. alcohols by cell-free particulate fractions. The format is biochemical. Particulars: oxygen and NADH. From the text:
The conditions for preparing the cell suspensions or the cell-free particulate fractions from methane-grown methylotroph microorganisms is the same as described above. […] Tables XXV and XXVI show the conversion of C3 -C6 n-alkanes to the corresponding secondary alcohols using cell suspensions and cell-free particulate fractions, respectively, of methane-grown methylotroph microorganisms.

The test system of experiment [5] is secondary alcohol dehydrogenase (SADH). Kind of experiment: Purified secondary alcohol dehydrogenase (SADH) activity. The class given is biochemical, Pseudomonas sp. ATCC 21439. Particulars: each inhibitor 1 mM, measured spectrofluorometrically. The method, then: Secondary alcohol dehydrogenase (SADH) from an obligate methanol utilizer, Pseudomonas sp. ATCC 21439 was purified as follows. […] 0.05 M sodium phosphate buffer, pH 7.0 with 0.5 mM dithiothretol (buffer A) and were disrupted sonically (5×1 min.). The crude extract was separated by centrifugation. The crude extract was heat-treated at 50° C. in a water bath for 10 minutes. The resulting precipitate was removed by centrifugation. To the supernatant solution, 25 ml of protamine sulfate solution (2% solution in 0.1 M Tris base) was added dropwise with continuous stirring. After standing for 30 minutes, the extract was centrifuged. The supernatant solution was fractionated with solid ammonium sulfate. The material precipitating between 30 and 60% saturation was collected and was dialized overnight against buffer A. The The dialized material was applied to a DEAE-cellulose column (3 cm by 35 cm) that had been equilibrated with buffer A. The secondary alcohol dehydrogenase activity was eluted in the void volume. This DEAE-cellulose eluate was concentrated by ammonium sulfate fractionation. Material precipitating between 30 and 50% ammonium sulfate saturation was collected by centrifugation and dialyzed overnight against A. This fraction was further washed and filtered through an Amicon unit with XM 50 membrane. The concentrated fraction (6 ml) inside the Amicon unit was applied to an Affi-Gel Blue column (0.8 cm×18 cm) which had been equilibrated with buffer A for affinity chromatography. The column was washed overnight with buffer A (0.18 ml./min.) and then was eluted with buffer A containing 5 mM NAD. Each 1 ml. fraction was collected.
The purified secondary alcohol dehydrogenase enzyme (SADH) may be used directly for converting C3 -C6 secondary alcohols to the corresponding methyl ketones by the procedures described above; however, a source of NAD^+ must be added to the reaction medium. One can determine the NAD-linked secondary alcohol dehydrogenase activity with a fluorescence spectrophotometer (Perkin Elmer, Model MPF 44A) by following the formation of reduced NAD (Ex 340 nm, Em 460 nm). The assay system (3 ml.) will typically contain: sodium phosphate buffer pH 7.0, 150 μmol; NAD 1.0 μmol; a given amount of enzyme preparation; and 20 μmol secondary alcohol. The reaction is started by the addition of secondary alcohol. One unit of SADH enzyme activity represents the reduction of one nmole NAD per minute.
The effect of metal-chelating agents and thioreagents on the activity of the purified SADH enzyme were studied. […] The possibility of ethanol or n-propanol as an inhibitor was studied.

Setting [6] is: examined spectrophotometrically.
Setting [7] is: purified enzyme, substrate 5.7 (isopropanol) or 6.0 (2-butanol) μmoles.

Read-outs that look alike come from different tables or passages of the source.

With `CCC(C)O` (stereo not drawn) [2-butanol], the “oxidation by the purified enzyme (substrate specificity)” value (“oxidation by the purified enzyme” for short) in experiment [1] is “catalyzed the oxidation”.
Turning to `C[n+]1c2ccccc2nc2ccccc21` [phenazine methosulfate], in experiment [1] (purified enzyme), the “ability to act as electron carrier in place of NAD^+” value (from here on “ability to act as electron carrier”) was “could not act as electron carrier”. Further, the “effectiveness as cofactor in place of NAD” value (shortened to “effectiveness as cofactor”) in experiment [2] is recorded as “not effective”.
`CCCCCCC(C)O` (stereo not drawn) [2-octanol]: the “oxidation by the purified enzyme” value in experiment [1] (setting [6]) is “not oxidized”.
As to `C=CC` [Propylene], in experiment [3], the “Propylene Oxide Produced” value is recorded as 4.3 μmoles/hr/mg. protein and the “Rate of Production Formation” value is 4.1 μ moles/hr/mg of protein. In addition, in experiment [4], the “inhibition of the conversion of n-alkanes to sec. alcohols” value (from here on “inhibition … to sec. alcohols”) is reported as “inhibited”.
On to `NC(=O)c1ccc[n+]([C@@H]2O[C@H](COP(=O)([O-])OP(=O)(O)OC[C@H]3O[C@@H](n4cnc5c(N)ncnc54)[C@H](OP(=O)(O)O)[C@@H]3O)[C@@H](O)[C@H]2O)c1` [NADP], for which the “ability to act as electron carrier” value in experiment [1] (purified enzyme) is listed as “could not act as electron carrier”. Also, the “effectiveness as cofactor” value in experiment [2] is recorded as “not effective”.
For `N[C@@H](CCC(=O)N[C@@H](CS)C(=O)NCC(=O)O)C(=O)O` [glutathione], the “inhibition of secondary alcohol dehydrogenase activity” value in experiment [1] (purified enzyme) was “strongly inhibited”. The “effectiveness as cofactor” value in experiment [2] is “not effective”.
Turning to `O=S(=O)([O-])[O-].[Cu+2]` [Cupric Sulfate], in experiment [3], the “Methane-Oxidizing Activity” value worked out at 7.1 μmoles/hr/mg protein and the “Propylene-Oxidizing Activity” value is 9.0 μmoles/hr/mg protein. For the same compound, the “inhibition of secondary alcohol dehydrogenase activity” value in experiment [1] (purified enzyme) was “inhibited”.
Turning to `C=CC=C` [Butadiene], the “Rate of Production Formation” value in experiment [3] was 0.63 μ moles/hr/mg of protein.
On to `CC(O)CO` (stereo not drawn) [1,2-propandiol], for which, in experiment [1] (setting [6]), the “oxidation by the purified enzyme” value was “not oxidized”.
Consider `c1c[nH]cn1` [Imidazole], for which, in experiment [1] (purified enzyme), the “inhibition of secondary alcohol dehydrogenase activity” value is recorded as “strongly inhibited”.
As to `C=CCC` [1-Butene], the “Rate of Production Formation” value in experiment [3] was 2.18 μ moles/hr/mg of protein.
Same read-out and setting: the result for `C=C` [Ethylene] reads 1.27 μ moles/hr/mg of protein.
Take `CCCC(C)O` (stereo not drawn) [2-pentanol]: the “oxidation by the purified enzyme” value in experiment [1] (setting [6]) is recorded as “catalyzed the oxidation”.
cytochrome c: the “ability to act as electron carrier” value in experiment [1] (purified enzyme) is “could not act as electron carrier”.
Consider `CCC(O)CO` (stereo not drawn) [butane 1,2-diol], for which the “oxidation by the purified enzyme” value in experiment [1] (setting [6]) is on record as “not oxidized”.
Regarding `CCCO` [propan-1-ol], the “oxidation by the purified enzyme” value in experiment [1] was “not oxidized”.
For the compound `O=C(O)c1cc[c]([Hg+])cc1.[OH-]` [p-hydroxymercuribenzoate], the “% inhibition of SADH activity” value in experiment [5] came out at 100%. Besides, in experiment [1] (purified enzyme), the “inhibition of secondary alcohol dehydrogenase activity” value is listed as “strongly inhibited”.
For `CCCCCC(C)O` (stereo not drawn) [2-Heptanol], the “oxidation by the purified enzyme” value in experiment [1] (setting [6]) was “not oxidized”.
In the case of `C` [Methane], in experiment [3], the “Propylene Oxide Produced” value is recorded as 0 μmoles/hr/mg. protein and the “Rate of Production Formation” value is 4.8 μ moles/hr/mg of protein.
As to `[Cu+2]` [cupric], the “% inhibition of SADH activity” value in experiment [5] is given as 25%.
Regarding `CCCCC(C)O` (stereo not drawn) [2-hexanol], in experiment [1] (setting [6]), the “oxidation by the purified enzyme” value was “catalyzed the oxidation”.
Regarding Ferrous Sulfate, in experiment [3], the “Methane-Oxidizing Activity” value is 4.8 μmoles/hr/mg protein and the “Propylene-Oxidizing Activity” value is on record as 5.9 μmoles/hr/mg protein.
On to `CC(C)O` [2-propanol], for which, in experiment [1] (setting [6]), the “oxidation by the purified enzyme” value is on record as “catalyzed the oxidation”. Further, in experiment [1] (setting [7]), the “NAD^+ Reduced” value was determined as 5.4 µmol and the “Product Formed” value worked out at 5.5 µmol.
With `[N-]=[N+]=[N-]` [Sodium azide], the “% inhibition of SADH activity” value in experiment [5] was 10%.
Consider `O=C(O)c1cc(SSc2ccc([N+](=O)[O-])c(C(=O)O)c2)ccc1[N+](=O)[O-]` [5,5'-dithiobis(2-nitrobenzoic acid)], for which the figures for the “% inhibition of SADH activity” value in experiment [5] and in experiment [5] (listed as 5,5'-dithiobis (2-nitrobenzoic acid)) were 100% and “inhibited”, respectively.
Turning to `CC(O)CCO` (stereo not drawn) [butane 1,3-diol], in experiment [1] (setting [6]), the “oxidation by the purified enzyme” value is reported as “not oxidized”.
`[Mn+2]` [Mn^++]: the “% inhibition of SADH activity” value in experiment [5] stood at 0%.
In the case of `CC` [Ethane], in experiment [3], the “Rate of Production Formation” value was 3.2 μ moles/hr/mg of protein.
For `NC(=O)C1=CN([C@@H]2O[C@H](COP(=O)(O)OP(=O)(O)OC[C@H]3O[C@@H](n4cnc5c(N)ncnc54)[C@H](OP(=O)(O)O)[C@@H]3O)[C@@H](O)[C@H]2O)C=CC1` [NAD(P)H], in experiment [2], the “effectiveness as cofactor” value was “not effective”.
`[Cl][Fe]([Cl])[Cl]` [Ferric Chloride]: in experiment [3], the “Methane-Oxidizing Activity” value turned out to be 4.8 μmoles/hr/mg protein and the “Propylene-Oxidizing Activity” value stood at 5.8 μmoles/hr/mg protein.
As to `Oc1cccc2cccnc12` [8-Hydroxyquinoline], the “inhibition … to sec. alcohols” value in experiment [4] is reported as “inhibited”.
Regarding `[Fe+2]` [ferrous], in experiment [5], the “% inhibition of SADH activity” value was 50%.
Turning to `N#C[S][Hg][S]C#N` [mercuric thiocyanate], the “inhibition of secondary alcohol dehydrogenase activity” value in experiment [1] (purified enzyme) is given as “inhibited”.
With `[Zn+2]` [Zn^++], the “% inhibition of SADH activity” value in experiment [5] is 0%.
Still for that read-out and setting: the result for `[Mg+2]` [Mg^++] reads 0%.
As to `CO` [methanol], the “oxidation by the purified enzyme” value in experiment [1] (setting [6]) is given as “not oxidized”.
Turning to `NNC(N)=S` [Thiosemicarbazide], the “inhibition … to sec. alcohols” value in experiment [4] is reported as “inhibited”.
Take `C=CCCC` [1-Pentene]: in experiment [3], the “Rate of Production Formation” value is 0 μ moles/hr/mg of protein.
With `CCO` [ethanol], the “oxidation by the purified enzyme” value in experiment [1] was “not oxidized”.
As for `CCN1C(=O)C=CC1=O` [N-ethylmalemide], the “% inhibition of SADH activity” value in experiment [5] is 6%; in experiment [5] (listed as N-ethylmaleimide), “not inhibited”.
Regarding `CCCCO` [butan-1-ol], the “oxidation by the purified enzyme” value in experiment [1] is listed as “not oxidized”.
As to `O=[N+]([O-])[O-].[Ag+]` [silver nitrate], the “inhibition of secondary alcohol dehydrogenase activity” value in experiment [1] (purified enzyme) is listed as “inhibited”.
Take `[Fe+3]` [ferric]: the “% inhibition of SADH activity” value in experiment [5] is recorded as 35%.
Turning to `[Ni+2]` [nickel], in experiment [5], the “% inhibition of SADH activity” value is 20%.
As for `[Co+2]` [Co^++], the “% inhibition of SADH activity” value in experiment [5] is on record as 0%.
As to `[Cl][Cu]` [Cuprous Chloride], in experiment [3], the “Methane-Oxidizing Activity” value turned out to be 7.2 μmoles/hr/mg protein and the “Propylene-Oxidizing Activity” value is 9.2 μmoles/hr/mg protein.
With `CCCCCO` [pentan-1-ol], the “oxidation by the purified enzyme” value in experiment [1] (setting [6]) was “not oxidized”.
